We go through one compound from patent US11517622B2, “Combination of regorafenib and PD-1/PD-L1(2) inhibitors for treating cancer” (BAYER AKTIENGESELLSCHAFT, priority 2017, dated 2022).

Assay [1] relates to MC38 syngeneic tumors. Kind of assay: Antitumor activity in syngenic murine MC38 CRC model (subcutaneous tumors). The class given is in vivo, mice. How it is done:
The combinatorial activity of regorafenib and anti-mouse PD-1 antibody (RMP1-14, Peng et al., Cancer Res., (2012) 72(20), 5209-5218) was investigated in a syngenic murine MC38 CRC model
MC38 syngeneic tumors were grown subcutaneously in mice and treated with regorafenib and/or anti-mouse PD-1 antibody (RMP1-14) according to the following regimens: […]
Control animals were treated concomitantly with the regorafenib vehicle (PluronicF68/PEG400/Propylenglycol (15/42,5/42,5+20% aqua)) and a non-binding isotype control antibody (rat IgG2a, clone 2A3). Tumor growth was monitored by caliper measurement and the tumor area was calculated using the formula a×b where a and b are the long and short diameters of the tumor, respectively. Tumor weights were measured after completion of the study. Tumor vs control (T/C) was calculated using vehicle treated animals as reference.

Assay [2] deals with CT26 syngeneic tumors. Briefly: Liver metastases in syngenic murine CT26 CRC model (orthotopic tumors). The class given is in vivo, mice. How it is done:
The combinatorial activity of regorafenib and anti-mouse PD-1 antibody (RMP1-14, Peng et al., Cancer Res., (2012) 72(20), 5209-5218) was investigated in a syngenic murine CT26 CRC model
CT26 syngeneic tumors were grown orthotopically in mice (Abou-Elkacem et al., Mol Cancer Ther. 2013 July; 12(7):1322-31) and treated with regorafenib and/or anti-mouse PD-1 antibody (RMP1-14) according to the following regimens:
a) regorafenib alone at a dose of 30 mg/kg per day once daily for 10 days as a PluronicF68/PEG400/Propylenglycol/water (12/34/34/20) po (per oral) formulation using the formulation vehicle alone as control or in a combination with an unspecific control antibody given intraperitoneally (i.p.) at a dose of 20 mg/kg in PBS every third day. b) anti-mouse PD-1 antibody (RMP1-14) alone dosed at 20 mg/kg every third day for four times as a PBS i.p. formulation and an unspecific antibody was used as control c) in combination, regorafenib at a dose of 20 mg/kg per day once daily for 10 days as a PluronicF68/PEG400/Propylenglycol/water (/12/34/34/20) p.o. formulation and anti-mouse PD-1 antibody (RMP1-14) dosed at 20 mg/kg every third day for four times as a PBS i.p. formulation,
Mice were sacrificed at the end of treatment or at the end of the observation period and livers were screened macroscopically for metastases on their surface. The number of mice with liver metastases was then related to the total number of mice in the respective study arm.

Setting [3] is: d 14 p.i., after treatment, single agent.
[4] abbreviates: d 25 p.i., observation period after treatment stop at d 14, regorafenib plus control antibody.

On to `CNC(=O)c1cc(Oc2ccc(NC(=O)Nc3ccc(Cl)c(C(F)(F)F)c3)c(F)c2)ccn1` [Regorafenib, 4{4-[3-(4-chloro-3-trifluoromethylphenyl)-ureido]-3-fluorophenoxy}-pyridine-2-carboxylic acid methylamide], for which the “T/C (area)” value in assay [1] (regimen a): regorafenib 3 mg/kg po once daily for 15 days plus isotype control 10 mg/kg ip, tumor area vs vehicle) amounted to 0.68. Further, in assay [1] (regimen a): regorafenib 3 mg/kg po once daily for 15 days plus isotype control 10 mg/kg ip, tumor weight at study end vs vehicle), the “T/C (weight)” value is on record as 0.64. The “growth of MC38 tumors vs control” value in assay [1] (single agents) is “inhibited the growth of MC38 tumors vs control”. Also, the “# of animals with mets” value in assay [2] (setting [3]) is recorded as 0; in assay [2] (setting [4]) it was 8. In addition, the “% animals wirth mets” value in assay [2] (setting [3]) was 0%; in assay [2] (setting [4]) it was 100%.
